Data taken from patent US9957271B2, “Substituted bicyclic aza-heterocycles and analogues as sirtuin modulators” (GlaxoSmithKline, LLC, priority 2012, dated 2018).

Assays:
[1] = molecular target: T1, SIRT1 (Homo sapiens, UniProt Q96EB6); experiment: TAMRA based mass spectrometry assay of SIRT1 activity; format: biochemical; conditions: TAMRA peptide substrate; for TAMRA EC1.5 (μM): concentration of test compound giving 150% activation of SIRT1; for Emax: percent maximum fold activation of SIRT1, read-out: TAMRA % Fold Act
T1 sequence (Q96EB6 1-747): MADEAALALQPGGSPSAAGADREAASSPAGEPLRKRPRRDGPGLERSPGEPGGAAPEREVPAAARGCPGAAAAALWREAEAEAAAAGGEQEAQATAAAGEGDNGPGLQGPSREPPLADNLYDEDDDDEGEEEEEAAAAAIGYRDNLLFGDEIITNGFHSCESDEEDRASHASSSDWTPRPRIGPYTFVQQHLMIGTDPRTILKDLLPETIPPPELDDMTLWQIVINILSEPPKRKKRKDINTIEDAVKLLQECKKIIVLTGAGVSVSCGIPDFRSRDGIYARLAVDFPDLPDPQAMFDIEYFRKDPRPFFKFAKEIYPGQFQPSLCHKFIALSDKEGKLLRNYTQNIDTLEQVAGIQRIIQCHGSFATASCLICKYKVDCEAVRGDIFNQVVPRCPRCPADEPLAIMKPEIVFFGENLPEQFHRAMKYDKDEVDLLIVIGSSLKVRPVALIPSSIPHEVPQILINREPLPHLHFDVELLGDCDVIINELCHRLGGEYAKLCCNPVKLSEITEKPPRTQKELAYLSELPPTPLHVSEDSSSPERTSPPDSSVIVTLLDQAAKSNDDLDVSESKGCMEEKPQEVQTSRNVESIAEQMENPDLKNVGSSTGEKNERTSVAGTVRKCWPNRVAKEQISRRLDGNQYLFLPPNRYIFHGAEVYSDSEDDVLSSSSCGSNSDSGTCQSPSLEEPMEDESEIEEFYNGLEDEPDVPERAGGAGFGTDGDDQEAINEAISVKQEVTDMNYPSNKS
How it was run: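 Recombinant N-terminal His-tagged human SIRT1 (10 nM, E. coli) incubated 25 min at 25 °C with 0.5 μM 5TMR-labelled p53-derived acetyl-peptide and 120 μM βNAD+ in Tris-acetate pH 8 buffer with DTT and 0.05% BSA, compound at varying concentrations. Stopped with formic acid; deacetylated peptide or OAADPR measured by mass spectrometry relative to DMSO controls.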

[2] = molecular target: T1, SIRT1; experiment: Trp mass spectrometry assay of SIRT1 activity; format: biochemical; conditions: Trp peptide substrate; for Trp EC1.5 (μM): concentration of test compound giving 150% activation of SIRT1; for Emax: percent maximum fold activation of SIRT1, read-out: Trp % Fold Act
How it was run: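 His-tagged SIRT1 expressed in E. coli BL21(DE3), 10 nM, incubated 25 min at 25° C. with 0.5 μM Ac-RHKK(Ac)W-NH2 peptide and 120 μM βNAD+ in 50 mM HEPES pH 7.5, […], 1 mM DTT, 0.05% BSA; formic acid stop. OAADPR or deacetylated peptide measured by mass spectrometry; EC1.5 and percent maximum activation versus DMSO control.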

TAMRA EC1.5 (μM) [1]	Emax [1] [%]	Trp EC1.5 (μM) [2]	Emax [2] [%]	SMILES
A (EC1.5<1 μM)	≥ 350	A (EC1.5<1 μM)	≥ 350	O=C(Nc1ccnc(N2CCC2)c1)c1cnc2ccc(-c3ccccc3C(F)(F)F)nn12 [Compound 50]
B (EC1.5 1-25 μM)	≥ 350	B (EC1.5 1-25 μM)	< 350	O=C(Nc1ccncc1)c1cnc2ccc(-c3ccccc3C(F)(F)F)nn12 [Compound 77]
A (EC1.5<1 μM)	≥ 350	A (EC1.5<1 μM)	≥ 350	Cc1cccc(NC(=O)c2cnc3ccc(-c4ccccc4C(F)(F)F)nn23)n1 [Compound 78]
B (EC1.5 1-25 μM)	≥ 350	C (EC1.5>25 μM)	< 350	O=C(Nc1ccncn1)c1cnc2ccc(-c3ccccc3C(F)(F)F)nn12 [Compound 80]
B (EC1.5 1-25 μM)	≥ 350	B (EC1.5 1-25 μM)	≥ 350	O=C(Nc1ncccn1)c1cnc2ccc(-c3ccccc3C(F)(F)F)nn12 [Compound 84]
C (EC1.5>25 μM)	< 350	C (EC1.5>25 μM)	< 350	O=C(Nc1cnc2ccc(-c3ccccc3C(F)(F)F)nn12)c1cccnc1 [Compound 86]
C (EC1.5>25 μM)	< 350	C (EC1.5>25 μM)	< 350	Cn1nccc1C(=O)Nc1cnc2ccc(-c3ccccc3C(F)(F)F)nn12 [Compound 93]
B (EC1.5 1-25 μM)	≥ 350	B (EC1.5 1-25 μM)	≥ 350	Cc1ccc(NC(=O)c2cnc3ccc(-c4ccccc4C(F)(F)F)nn23)cn1 [Compound 98]
A (EC1.5<1 μM)	≥ 350	B (EC1.5 1-25 μM)	≥ 350	Cc1cc(C)nc(NC(=O)c2cnc3ccc(-c4ccccc4C(F)(F)F)nn23)c1 [Compound 101]
A (EC1.5<1 μM)	≥ 350	B (EC1.5 1-25 μM)	≥ 350	Cc1cc(NC(=O)c2cnc3ccc(-c4ccccc4C(F)(F)F)nn23)ccn1 [Compound 102]
A (EC1.5<1 μM)	≥ 350	B (EC1.5 1-25 μM)	< 350	CN(C)c1cccc(NC(=O)c2cnc3ccc(-c4ccccc4C(F)(F)F)nn23)n1 [Compound 104]
B (EC1.5 1-25 μM)	≥ 350	B (EC1.5 1-25 μM)	< 350	O=C(Nc1cncc(F)c1)c1cnc2ccc(-c3ccccc3C(F)(F)F)nn12 [Compound 107]
A (EC1.5<1 μM)	≥ 350	B (EC1.5 1-25 μM)	< 350	O=C(Nc1ccc(F)cn1)c1cnc2ccc(-c3ccccc3C(F)(F)F)nn12 [Compound 110]
B (EC1.5 1-25 μM)	≥ 350	B (EC1.5 1-25 μM)	< 350	Cn1ccc(NC(=O)c2cnc3ccc(-c4ccccc4C(F)(F)F)nn23)n1 [Compound 112]
B (EC1.5 1-25 μM)	< 350	B (EC1.5 1-25 μM)	< 350	Cc1ncccc1NC(=O)c1cnc2ccc(-c3ccccc3C(F)(F)F)nn12 [Compound 113]
B (EC1.5 1-25 μM)	< 350	B (EC1.5 1-25 μM)	< 350	Cc1cc(C)c(NC(=O)c2cnc3ccc(-c4ccccc4C(F)(F)F)nn23)cn1 [Compound 125]

Continued, molecule first:

SMILES	TAMRA EC1.5 (μM) [1]	Emax [1] [%]	Trp EC1.5 (μM) [2]	Emax [2] [%]
O=C(Nc1cccc(CN2CCOCC2)n1)c1cnc2ccc(-c3ccc(F)c(F)c3)nn12 [Compound 43]	B (EC1.5 1-25 μM)	< 350	C (EC1.5>25 μM)	< 350
O=C(Nc1nc(CN2CCOCC2)cs1)c1cnc2ccc(-c3ccc(F)c(F)c3)nn12 [Compound 44]	B (EC1.5 1-25 μM)	< 350	B (EC1.5 1-25 μM)	< 350
O=C(Nc1cccc(CN2CCOCC2)n1)c1cnc2ccc(-c3cccc(F)c3F)nn12 [Compound 47]	A (EC1.5<1 μM)	≥ 350	C (EC1.5>25 μM)	< 350
O=C(Nc1cccc(N2CCC2)n1)c1cnc2ccc(-c3ccccc3C(F)F)nn12 [Compound 51]	A (EC1.5<1 μM)	≥ 350	B (EC1.5 1-25 μM)	≥ 350
Cc1noc(C)c1-c1ccc2ncc(C(=O)Nc3cccc(N4CCOCC4)n3)n2n1 [Compound 53]	B (EC1.5 1-25 μM)	< 350	B (EC1.5 1-25 μM)	< 350
Cn1cc(-c2ccc3ncc(C(=O)Nc4cccc(N5CCOCC5)n4)n3n2)cn1 [Compound 56]	B (EC1.5 1-25 μM)	< 350	B (EC1.5 1-25 μM)	< 350
Cc1ncccc1-c1ccc2ncc(C(=O)Nc3ccnc(N4CCCC4)c3)n2n1 [Compound 59]	B (EC1.5 1-25 μM)	< 350	C (EC1.5>25 μM)	< 350
O=C(Nc1ccnc(N2CCC2)c1)c1cnc2ccc(-c3cncc(C(F)F)c3)nn12 [Compound 62]	B (EC1.5 1-25 μM)	< 350	C (EC1.5>25 μM)	< 350
O=C(Nc1ccnc(N2CCOCC2)c1)c1nnc2ccc(-c3ccccc3C(F)F)nn12 [Compound 68]	B (EC1.5 1-25 μM)	< 350	B (EC1.5 1-25 μM)	< 350
Cc1nc2ccc(-c3ccccc3C(F)(F)F)nn2c1C(=O)Nc1cccc(N2CCC2)n1 [Compound 69]	A (EC1.5<1 μM)	≥ 350	B (EC1.5 1-25 μM)	≥ 350
Cc1nc2ccc(-c3ccccc3C(F)(F)F)nn2c1C(=O)Nc1cccc(N2CCOCC2)n1 [Compound 71]	A (EC1.5<1 μM)	≥ 350	A (EC1.5<1 μM)	≥ 350
O=C(Nc1ccnc(OCC(O)CO)n1)c1cnc2ccc(-c3ccccc3C(F)(F)F)nn12 (centres unmarked) [Compound 74]	A (EC1.5<1 μM)	≥ 350	A (EC1.5<1 μM)	≥ 350
O=C(Nc1cnc2ccc(-c3ccccc3C(F)(F)F)nn12)c1cccc(OCC(O)CO)n1 (centres unmarked) [Compound 83]	A (EC1.5<1 μM)	≥ 350	A (EC1.5<1 μM)	≥ 350
Cn1cnc(C(=O)Nc2cnc3ccc(-c4ccccc4C(F)(F)F)nn23)c1 [Compound 92]	B (EC1.5 1-25 μM)	≥ 350	C (EC1.5>25 μM)	< 350
O=C(Nc1cccc(N2CCOCC2)n1)c1cnc2ccc(-c3ccccc3Cl)nn12 [Compound 95]	A (EC1.5<1 μM)	≥ 350	A (EC1.5<1 μM)	< 350
O=C(Nc1cccc(CN2CCOCC2)n1)c1cnc2ccc(-c3ccccc3Cl)nn12 [Compound 116]	A (EC1.5<1 μM)	≥ 350	C (EC1.5>25 μM)	< 350
O=C(Nc1cnccn1)c1cnc2ccc(-c3ccccc3Cl)nn12 [Compound 119]	B (EC1.5 1-25 μM)	< 350	C (EC1.5>25 μM)	< 350
O=C(Nc1cnc2ccc(-c3ccccc3C(F)(F)F)nn12)c1cncc(N2CCOCC2)n1 [Compound 120]	A (EC1.5<1 μM)	≥ 350	B (EC1.5 1-25 μM)	≥ 350
O=C(Nc1cnc2ccc(-c3ccccc3C(F)(F)F)nn12)c1nccs1 [Compound 122]	A (EC1.5<1 μM)	≥ 350	B (EC1.5 1-25 μM)	< 350
